This note sets out measurements from ChEMBL document CHEMBL1157973, “ent-Trachylobane diterpenoids from Xylopia langsdorffiana” (J Nat Prod, 2006).

The test system of one assay is V79. The assay is described as follows: Cytotoxicity against chinese hamster V79 cells by MTT assay. It counts as cell-based. The settings on record: Cricetulus griseus. For orientation: Tetrazolium assays rely on reduction of a dye to a coloured formazan, in cell work by metabolically active cells.
In the next assay the test system is Hepatocyte. The assay is described as follows: Cytotoxicity against Wistar rat hepatocytes cells by MTT assay. Format: cell-based.
The next assay concerns K562. The assay can be described thus: Cytotoxicity against human K562 cells. It counts as functional, cell-based.

As a reminder, the IC50 is the midpoint of a concentration-inhibition curve. `CC(=O)O[C@@H]1CC2[C@@](C)(C(=O)O)CCC[C@@]2(C)[C@@H]2C[C@@H]3C4C[C@@]21C[C@]43C` (stereo partly drawn): the IC50 with V79 worked out at 224 µM; with Hepatocyte, 231 µM; in the assay with K562, 200 µM.
